Assay results published in ChEMBL document CHEMBL1133232, “The design and synthesis of thrombin inhibitors: analogues of MD805 containing non-polar surrogates for arginine at the P1 position” (Bioorg Med Chem Lett, 2000).
pKi: −log10 of the molar value.

What was measured:
[1] = biological target: Kallikrein-1 (Homo sapiens, UniProt P06870); test: Compound was evaluated for its inhibitory activity against kallikrein
[2] = biological target: Prothrombin (Homo sapiens, UniProt P00734); test: Compound was evaluated for its inhibitory activity against Thrombin
[3] = biological target: Plasminogen (Homo sapiens, UniProt P00747); test: Compound was evaluated for its inhibitory activity against plasmin
Plasminogen, sequence (P00747 97-580 limits assumed): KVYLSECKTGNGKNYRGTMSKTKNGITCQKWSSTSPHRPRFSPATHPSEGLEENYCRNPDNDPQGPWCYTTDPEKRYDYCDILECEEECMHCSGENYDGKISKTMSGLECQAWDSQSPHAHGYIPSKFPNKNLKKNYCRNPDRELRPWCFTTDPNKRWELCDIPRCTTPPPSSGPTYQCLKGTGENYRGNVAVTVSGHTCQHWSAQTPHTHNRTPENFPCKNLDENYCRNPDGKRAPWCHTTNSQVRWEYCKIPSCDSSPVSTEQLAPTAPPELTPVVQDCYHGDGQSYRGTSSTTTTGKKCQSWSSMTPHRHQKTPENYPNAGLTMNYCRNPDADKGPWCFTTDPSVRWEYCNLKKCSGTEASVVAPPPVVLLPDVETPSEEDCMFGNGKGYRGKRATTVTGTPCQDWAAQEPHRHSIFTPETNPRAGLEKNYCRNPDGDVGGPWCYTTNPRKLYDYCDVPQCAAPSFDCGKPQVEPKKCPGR
Plasminogen, sequence (P00747 581-810 limits assumed): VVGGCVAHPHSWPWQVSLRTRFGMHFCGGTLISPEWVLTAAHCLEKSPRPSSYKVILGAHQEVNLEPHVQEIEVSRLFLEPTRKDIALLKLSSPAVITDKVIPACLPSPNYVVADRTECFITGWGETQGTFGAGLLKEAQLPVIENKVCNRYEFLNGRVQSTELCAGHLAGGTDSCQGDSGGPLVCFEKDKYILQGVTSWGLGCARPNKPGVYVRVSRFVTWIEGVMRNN

[4] = biological target: Serine protease 1 (Homo sapiens, UniProt P07477); test: Compound was evaluated for its inhibitory activity against Trypsin
Serine protease 1, sequence (P07477 whole entry): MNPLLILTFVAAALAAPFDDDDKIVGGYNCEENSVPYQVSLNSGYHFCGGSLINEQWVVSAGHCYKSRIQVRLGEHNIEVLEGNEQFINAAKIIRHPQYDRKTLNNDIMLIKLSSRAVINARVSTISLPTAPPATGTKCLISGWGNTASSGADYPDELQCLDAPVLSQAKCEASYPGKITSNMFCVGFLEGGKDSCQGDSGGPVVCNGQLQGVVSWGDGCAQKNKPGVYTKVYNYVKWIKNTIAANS

[5] = biological target: Coagulation factor X (Homo sapiens, UniProt P00742); test: Compound was evaluated for its inhibitory activity against Coagulation factor X
Coagulation factor X, sequence (P00742 41-179 limits assumed): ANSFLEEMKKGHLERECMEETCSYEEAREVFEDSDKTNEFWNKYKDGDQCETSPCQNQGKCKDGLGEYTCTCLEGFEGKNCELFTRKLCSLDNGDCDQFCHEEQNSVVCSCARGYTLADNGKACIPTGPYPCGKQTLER
Coagulation factor X, sequence (P00742 235-488 limits assumed): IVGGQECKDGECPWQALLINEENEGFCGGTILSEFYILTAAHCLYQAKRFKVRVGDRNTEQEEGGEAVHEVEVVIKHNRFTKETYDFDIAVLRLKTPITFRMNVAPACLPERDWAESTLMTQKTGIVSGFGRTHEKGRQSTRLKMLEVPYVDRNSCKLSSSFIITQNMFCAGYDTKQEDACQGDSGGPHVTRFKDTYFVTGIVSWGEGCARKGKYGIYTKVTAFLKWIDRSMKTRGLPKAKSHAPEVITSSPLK

Kallikrein-1, sequence (P06870 whole entry): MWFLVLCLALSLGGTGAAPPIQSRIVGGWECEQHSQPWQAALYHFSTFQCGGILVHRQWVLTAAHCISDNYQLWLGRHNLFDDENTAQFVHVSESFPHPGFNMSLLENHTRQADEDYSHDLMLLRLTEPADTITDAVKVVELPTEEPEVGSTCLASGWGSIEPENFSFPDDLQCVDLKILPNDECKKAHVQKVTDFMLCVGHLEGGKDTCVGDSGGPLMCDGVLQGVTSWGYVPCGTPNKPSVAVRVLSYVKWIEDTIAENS

CC1(C)CNc2c(cccc2S(=O)(=O)N[C@@H](CSCCCN)C(=O)N2CCC(CCO)CC2)C1
pKi [1]: < 4.06
pKi [2]: 6.55
pKi [3]: 5.21
pKi [4]: 5.75
pKi [5]: 4.06

CC1(C)CNc2c(cccc2S(=O)(=O)NC(Cc2nc3ccccc3s2)C(=O)N2CCC(CCF)CC2)C1 (stereo in doubt)
pKi [2]: 7.55

CCC1CCN(C(=O)C(Cc2nc3ccccc3s2)NS(=O)(=O)c2cccc3c2NCC(C)(C)C3)CC1 (centres undefined)
pKi [1]: 4.04
pKi [2]: 6.61
pKi [3]: 3.62
pKi [4]: 3.59
pKi [5]: 4.04

CC(=O)OCCC1CCN(C(=O)C(Cc2nc3ccccc3[nH]2)NS(=O)(=O)c2cccc3c2NCC(C)(C)C3)CC1 (centres undefined)
pKi [2]: 6.34

CC1CNc2c(cccc2S(=O)(=O)N[C@@H](CCc2ccccc2)C(=O)N2CCC(CCO)CC2)C1 (some centres undefined)
pKi [2]: 4.33

CC1(C)CNc2c(cccc2S(=O)(=O)NC(Cc2nc(-c3ccccc3)cs2)C(=O)N2CCC(CCO)CC2)C1 (centres undefined)
pKi [2]: 5.48

CC1(C)CNc2c(cccc2S(=O)(=O)NC(Cc2nc3cncnc3s2)C(=O)N2CCC(CCF)CC2)C1 (centres undefined)
pKi [2]: 5.34

CC1(C)CNc2c(cccc2S(=O)(=O)NC(Cc2nc3ccccc3s2)C(=O)N2CCC(CCO)CC2)C1 (centres undefined)
pKi [2]: 7.10

CC1(C)CNc2c(cccc2S(=O)(=O)N[C@@H](CSCCCN)C(=O)N2CCC(CCF)CC2)C1
pKi [1]: < 4.06
pKi [2]: 6.90
pKi [3]: 5.40
pKi [4]: 5.88
pKi [5]: 4.06

CC1(C)CNc2c(cccc2S(=O)(=O)NC(Cc2nc3ccccc3s2)C(=O)N2CCC(CCF)CC2)C1 (stereo in doubt; 26)
pKi [2]: 7.59

CC1(C)CNc2c(cccc2S(=O)(=O)NC(Cc2nc3ccncc3s2)C(=O)N2CCC(CCF)CC2)C1 (centres undefined)
pKi [2]: 6.09

CC1(C)CNc2c(cccc2S(=O)(=O)NC(Cc2nc(CN)cs2)C(=O)N2CCC(CCO)CC2)C1 (centres undefined)
pKi [2]: 6.12

Cc1csc(CC(NS(=O)(=O)c2cccc3c2NCC(C)(C)C3)C(=O)N2CCC(CCO)CC2)n1 (centres undefined)
pKi [2]: 5.66

CC1CNc2c(cccc2S(=O)(=O)N[C@@H](Cc2c[nH]c3ccccc23)C(=O)N2CCC(CCO)CC2)C1 (some centres undefined)
pKi [2]: 5.80

CC1(C)CNc2c(cccc2S(=O)(=O)N[C@@H](Cc2cccnc2)C(=O)N2CCC(CCO)CC2)C1
pKi [2]: 4.71

CC1CNc2c(cccc2S(=O)(=O)N[C@@H](Cc2nc3ccccc3s2)C(=O)N2CCC(CCO)CC2)C1 (stereo in doubt; 23)
pKi [2]: 6.93

CC1CNc2c(cccc2S(=O)(=O)N[C@@H](Cc2nc3ccccc3o2)C(=O)N2CCC(CCO)CC2)C1 (some centres undefined)
pKi [2]: 5.51

CC1CNc2c(cccc2S(=O)(=O)N[C@@H](Cc2nc3ccccc3s2)C(=O)N2CCC(CCO)CC2)C1 (stereo in doubt; 33)
pKi [1]: < 4.35
pKi [2]: 6.93
pKi [3]: 3.96
pKi [4]: 3.90
pKi [5]: 4.35
